From ChEMBL document CHEMBL4049443, “Discovery of 2-[[2-Ethyl-6-[4-[2-(3-hydroxyazetidin-1-yl)-2-oxoethyl]piperazin-1-yl]-8-methylimidazo[1,2-a]pyridin-3-yl]methylamino]-4-(4-fluorophenyl)thiazole-5-carbonitrile (GLPG1690), a First-in-Class Autotaxin Inhibitor Undergoing Clinical Evaluation for the Treatment of Idiopathic Pulmonary …” (J Med Chem, 2017)

Tests used:
[1] = target: Autotaxin (Homo sapiens, UniProt Q13822); assay: Inhibition of human ATX using LPC (16:0) as substrate after 30 mins by horseradish peroxidase/choline oxidase coupled enzyme based spectrophotometric analysis
[2] = target: Voltage-gated inwardly rectifying potassium channel KCNH2 (Homo sapiens, UniProt Q12809); assay: Inhibition of human ERG by automated patch clamp assay
[3] = target: Cytochrome P450 3A4 (Homo sapiens, UniProt P08684); assay: Time-dependent inhibition of human liver microsomes CYP3A4; format: ADME
[4] = target: Autotaxin (Rattus norvegicus, UniProt Q64610); assay: Inhibition of ATX in rat plasma assessed as reduction in LPA 18:2 production after 2 hrs by LC-MS/MS analysis
[5] = Plasma clearance in mouse at 1 mg/kg, iv; format: ADME, organism-based
[6] = Oral bioavailability in mouse at 5 mg/kg; format: ADME, organism-based; conditions: in vivo
[7] = Plasma clearance in rat at 1 mg/kg, iv; format: ADME, organism-based
[8] = Oral bioavailability in rat at 5 mg/kg; format: ADME, organism-based; conditions: in vivo
[9] = Chemical stability of the compound in DMSO by 1H NMR analysis; format: physicochemical
[10] = Chemical stability of the compound in DMSO by LC-MS analysis; format: physicochemical

Cytochrome P450 3A4, sequence (P08684 whole entry): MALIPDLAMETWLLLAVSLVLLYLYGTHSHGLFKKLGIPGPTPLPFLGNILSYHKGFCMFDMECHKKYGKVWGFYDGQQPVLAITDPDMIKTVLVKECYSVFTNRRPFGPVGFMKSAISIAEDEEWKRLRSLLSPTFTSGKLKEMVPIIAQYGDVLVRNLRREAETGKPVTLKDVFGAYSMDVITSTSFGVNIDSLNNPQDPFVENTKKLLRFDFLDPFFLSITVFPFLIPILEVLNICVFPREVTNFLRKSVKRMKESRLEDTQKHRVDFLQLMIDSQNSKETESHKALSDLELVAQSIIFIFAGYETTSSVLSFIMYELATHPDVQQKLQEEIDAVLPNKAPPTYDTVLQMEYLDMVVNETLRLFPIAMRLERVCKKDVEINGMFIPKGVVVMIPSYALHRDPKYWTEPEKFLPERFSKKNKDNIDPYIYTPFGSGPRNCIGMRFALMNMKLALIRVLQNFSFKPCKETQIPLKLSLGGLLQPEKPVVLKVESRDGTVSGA
Voltage-gated inwardly rectifying potassium channel KCNH2, sequence (Q12809 whole entry): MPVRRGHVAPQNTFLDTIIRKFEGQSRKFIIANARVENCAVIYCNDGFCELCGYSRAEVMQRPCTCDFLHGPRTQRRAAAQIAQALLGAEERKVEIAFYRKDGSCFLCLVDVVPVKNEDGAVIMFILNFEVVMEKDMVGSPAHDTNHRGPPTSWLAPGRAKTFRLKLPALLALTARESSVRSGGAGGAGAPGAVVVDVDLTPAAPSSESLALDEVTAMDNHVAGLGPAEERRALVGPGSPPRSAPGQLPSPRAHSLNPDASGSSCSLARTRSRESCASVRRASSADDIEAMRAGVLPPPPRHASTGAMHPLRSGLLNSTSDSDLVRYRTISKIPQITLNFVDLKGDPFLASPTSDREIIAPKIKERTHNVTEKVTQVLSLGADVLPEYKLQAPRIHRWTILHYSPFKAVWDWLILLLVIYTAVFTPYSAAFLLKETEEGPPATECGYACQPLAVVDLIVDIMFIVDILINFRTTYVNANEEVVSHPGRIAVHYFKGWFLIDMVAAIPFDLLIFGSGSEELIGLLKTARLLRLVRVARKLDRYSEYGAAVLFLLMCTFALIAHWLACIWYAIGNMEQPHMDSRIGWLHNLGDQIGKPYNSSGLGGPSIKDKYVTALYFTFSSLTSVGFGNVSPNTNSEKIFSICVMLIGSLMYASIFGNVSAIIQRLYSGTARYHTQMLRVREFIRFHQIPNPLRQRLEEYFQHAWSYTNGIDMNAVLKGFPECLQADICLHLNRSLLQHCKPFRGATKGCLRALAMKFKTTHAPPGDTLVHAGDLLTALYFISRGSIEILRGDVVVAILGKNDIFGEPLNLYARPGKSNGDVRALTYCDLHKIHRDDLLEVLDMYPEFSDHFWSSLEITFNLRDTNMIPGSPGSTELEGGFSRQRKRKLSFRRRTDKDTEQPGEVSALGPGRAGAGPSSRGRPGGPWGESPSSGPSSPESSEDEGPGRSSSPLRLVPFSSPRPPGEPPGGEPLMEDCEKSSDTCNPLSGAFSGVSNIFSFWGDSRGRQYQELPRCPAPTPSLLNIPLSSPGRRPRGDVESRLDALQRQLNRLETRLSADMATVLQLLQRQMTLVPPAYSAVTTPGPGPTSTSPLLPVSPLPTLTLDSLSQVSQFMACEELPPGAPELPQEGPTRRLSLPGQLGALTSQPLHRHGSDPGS

SMILES | IC50 [1] | TDI [3] | IC50 [4] | clearance [5] | bioavailability [6] | clearance [7] | bioavailability [8] | Stability [9] | Stability [10] | IC50 [2]
CCc1nc2ccc(C3CCN(CC(=O)N4CC(O)C4)CC3)cn2c1N(C)c1nc(-c2ccc(F)cc2)cs1 | 246 nM | Active | – | – | – | – | – | – | – | –
CCc1nc2ccc(C3CCN(CC(=O)N4CC(O)C4)CC3)nn2c1N(C)c1nc(-c2ccc(F)cc2C#N)ns1 | 297 nM | Active | – | – | – | – | – | – | – | –
CCc1nc2cc(C)c(C3CCN(CC(=O)N4CC(O)C4)CC3)cn2c1N(C)c1nc(-c2ccc(F)cc2)cs1 | 811 nM | Not Active | – | – | – | – | – | – | – | –
CCc1nc2cnc(N3CCN(CC(=O)N4CC(O)C4)CC3)cn2c1N(C)c1nc(-c2ccc(F)cc2)c(C#N)s1 | 102 nM | Not Active | – | – | – | – | – | Unstable | Unstable | –

The next compounds have a lower IC50 [1] than those just listed; values first:

IC50 [1] | TDI [3] | IC50 [4] | clearance [5] | bioavailability [6] | clearance [7] | bioavailability [8] | Stability [9] | Stability [10] | SMILES | IC50 [2]
27 nM | Active | 22 nM | 20 mL/min/kg | 12% | 51.7 mL/min/kg | 15% | – | – | CCc1nc2ccc(C3CCN(CC(=O)N4CC(O)C4)CC3)cn2c1N(C)c1nc(-c2ccc(F)cc2)c(C#N)s1 | 2900 nM
26 nM | Active | – | – | – | – | – | – | – | CCc1nc2ccc(N3CCN(CC(=O)N4CC(O)C4)CC3)cn2c1N(C)c1nc(-c2ccc(F)cc2)c(C#N)s1 | > 11000 nM
